Reference: US11427604B2 (Mindset Pharma Inc., priority 2020, dated 2022)
Where two headings read alike, the source gives them in different places.

What was measured:
[1] = cited from earlier work
[2] = biological target: human 5-HT2A (h5-HT2A) receptor (Homo sapiens (Human), UniProt P28223); assay: FLIPR assay, human 5-HT2A receptor under agonist mode; type: cell-based
Method: I. Assessment of the Activated Effect of Compounds of Formula I Targeting on Human 5-HT2A (h5-HT2A) Receptor Under Agonist Mode
1. Culture the cells in cell culture medium (DMEM containing 10% FBS, 1× penicillin-streptomycin 300 μg/ml G418 and 100 μg/ml hygromycin B) at 37° C., 5% (v/v) CO2.
2. One day before the assays, detach the cell using TrypLE™ Express and count cells using cell counter.
3. Seed 20000 cells/well in 30 μl/well culture medium to a 384-well cell plate and incubate the cells overnight at 37° C., 5% (v/v) C02.
4. On the assay day, prepare 2× dye solution following the manual of the FLIPR® Calcium 6 Assay Kit: i. Dilute the dye with assay buffer (20 mM HEPES in 1×HBSS, PH7.4); ii. Add probenecid to the final concentration of 5 mM; iii. Vortex vigorously for 1-2 minutes.
5. Remove medium from cell plate by flicking the cell plate on towel papers.
6. Add 10 μl of assay buffer and 10 μl of 2× dye solution to each well of the cell plate.
7. Put the cell plate on plate shaker, agitate the plate at 600 rpm for 2 minutes. Incubate the plate at 37° C. for 2 hours followed by additional 15-minute incubation at 25° C.
8. Prepare 3× compound in assay buffer: a. Dilute reference compounds to required concentration with DMSO. Add the compounds to a 384-well compound plate; b. Perform serial dilutions; c. Add 10 mM test compounds to the compound plate, perform 3-fold serial dilutions. d. […] Add 20 μl/well assay buffer to the compound plate; f. Mix the plate on plate shaker for 2 mins;
i. The normalized fluorescence reading (RFU) is calculated as shown follow, while Fmax and Fmin stand for maximum and minimum of calcium signal during defined time window: RFU=Fmax−Fmin
ii. Calculate the percentage activation by using following equation: […]
iii. Calculate EC50 by fitting % activation against log of compound concentrations with Hill equation using XLfit.

[3] = biological target: human 5-HT2A receptor (Homo sapiens (Human), UniProt P28223); assay: Radioligand binding assay ([3H]-ketanserin) on human 5-HT2A receptor
Method: i. Prepare the assay buffer following the table below;
ii. Preparation of 8 doses of reference and test compounds starting from 10 mM stock solution as requested by 5-fold serial dilutions with 100%;
iii. […] a. Add 50 μl/well of 0.5% (v/v) PEI to UniFilter-96 GF/B plates. Seal the plates and incubate at 4° C. for 3 hrs; b. After incubation, wash the plates 3 times with ice-cold wash buffer (50 mM Tris, pH7.4);
iv. Preparation of assay plates: a. Dilute cell membrane with assay buffer and add 330 μl/well to 96 round deep well plates to reach a concentration of 20 μg/well; b. Prepare 8 concentrations of reference or exemplary compounds of the application and add 110 μl/well to 96 round deep well plates; c. Dilute [3H]-ketanserin with assay buffer to 5 nM (5× final concentration) and add 110 μl/well to 96 round deep well plates.
v. Centrifuge the plate at 1000 rpm for 30 secs and then agitate at 600 rpm, R.T. for 5 min.
vi. Seal the plates and incubate the plate at 27° C. for 90 min.
vii. Stop the incubation by vacuum filtration onto GF/B filter plates followed by 4 times washing with ice-cold wash buffer (50 mM Tris, pH7.4).
ix. Seal the filter plates and add 40 μl/well of scintillation cocktail.
x. Read the plate by using a Microbeta2 microplate counter.
For reference and exemplary test compounds of the application, the results are expressed as % Inhibition, using the normalization equation: N=100−100×(U−C2)/(C1−C2), where U is the unknown value, C1 is the average of high controls, and C2 is the average of low controls. The IC50 is determined by fitting percentage of inhibition as a function of compound concentrations with Hill equation using XLfit.

[4] = Human liver microsomes stability with NADPH
Method: (§1) The objective of this study was to estimate in vitro metabolic stability of 1-45 in pooled human and male mouse liver microsomes. The concentrations of exemplary compounds in reaction systems were evaluated by LC-MS/MS for estimating the stability in pooled human and male mouse liver microsomes. The in vitro intrinsic clearances of test compounds were determined as well.
(§2) A master solution in the “Incubation Plate” containing phosphate buffer, ultra-pure H2O, MgCl2 solution and liver microsomes was made according to Table --. The mixture was pre-warmed at 37° C. water bath for 5 minutes.
(§3) 40 μL of 10 mM NADPH solution was added to each well. The final concentration of NADPH was 1 mM. The negative control samples were prepared by replacing NADPH with 40 μL of ultra-pure H2O. Samples were prepared in duplicate. Negative controls were prepared in singlet.
(§4) The reaction was started with the addition of 4 μL of 200 μM test compounds or control compounds to each master solution to get the final concentration of 2 μM. This study was performed in duplicate.
(§5) Aliquots of 50 μL were taken from the reaction solution at 0, 15, 30, 45 and 60 minutes. The reaction solutions were stopped by the addition of 4 volumes of cold methanol with IS (100 nM alprazolam, 200 nM imipramine, 200 nM labetalol and 2 μM ketoprofen). Samples were centrifuged at 3,220 g for 40 minutes. Aliquot of 90 μL of the supernatant was mixed with 90 μL of ultra-pure H2O and then was used for LC-MS/MS analysis.
(§6) LC/MS analysis was performed for all samples from this study using a Shimadzu liquid chromatograph separation system equipped with degasser DGU-20A5R; solvent delivery unit LC-30AD; system controller SIL-30AC; column oven CTO-30A; CTC Analytics HTC PAL System. Mass spectrometric analysis was performed using an Triple Quad™ 5500 instrument.
(§7) All calculations were carried out using Microsoft Excel. Peak area ratios of test compound to internal standard (listed in the below table) were determined from extracted ion chromatograms.
(§8) All calculations were carried out using Microsoft Excel. Peak areas were determined from extracted ion chromatograms. The slope value, k, was determined by linear regression of the natural logarithm of the remaining percentage of the parent drug vs. incubation time curve.
(§9) Conversion of the in vitro t1/2 (min) into the in vitro intrinsic clearance (in vitro CLint, in μL/min/mg proteins) was done using the following equation (mean of duplicate determinations):
(§10) [formula] […] Results & Discussion

[5] = Mouse liver microsomes stability with NADPH
Method: as §1, §2, §3, §4, §5, §6, §7, §8, §9, §10

[6] = Rat liver microsomes stability with NADPH

In the case of `CN(C)CCc1c[nH]c2cccc(OP(=O)(O)O)c12` [psilocybin, 4-phosphoryloxy-N,N-dimethyltrypatmine], the abstinence rate ([1]; 12 months follow-up) is given as 67% and the abstinence rate ([1]; six months follow-up) is given as 80%.
Compound `[2H]C([2H])([2H])N(C([2H])([2H])[2H])C([2H])([2H])C([2H])([2H])c1c[nH]c2cccc(OC)c12` [Compound I-44, 2-(4-methoxy-1H-indol-3-yl)-N,N-bis(methyl-d3)ethan-1-amine-1,1,2,2-d4] has an EC50 [2] of under 1000 nM and an IC50 [3] of under 500 nM.
In the case of `CN(C)CCc1c[nH]c2cccc(O)c12` [Psilocin, 4-hydroxy-N,N-dimethyltryptamine, reference compound], the “Remaining Percentage (%) after 60 min” value ([4]; Human, with NADPH, 2 μM) is reported as 70.16%, the half-life at 2 μM ([4]; human, microsomes) is reported as 1.96 h and the microsomal CLint at 2 μM ([4]; human, microsomes) is reported as 11.8 µL/min/mg. The “Remaining Percentage (%) after 60 min” value ([5]; Mouse, with NADPH, 2 μM) was 96.89%, the half-life at 2 μM ([5]; male, mouse, microsomes) was 2.36 h and the microsomal CLint at 2 μM ([5]; male, mouse, microsomes) was 9.78 µL/min/mg. The “Remaining Percentage (%) after 60 min” value ([6]; Rat, with NADPH, 2 μM) was 62.68%, the half-life at 2 μM ([6]; rat, microsomes) was 1.48 h and the microsomal CLint at 2 μM ([6]; rat, microsomes) was 15.6 µL/min/mg.
Work on `[2H]C([2H])([2H])N(C([2H])([2H])[2H])C([2H])([2H])C([2H])([2H])c1c[nH]c2cccc(OP(=O)(O)O)c12` [Compound I-3, 3-(2-(bis(methyl-d3)amino)ethyl-1,1,2,2-d4)-1H-indol-4-yl dihydrogen phosphate] yielded an EC50 [2] of 1000 to 10000 nM and an IC50 [3] of 500 to 5000 nM.
Compound `[2H]C([2H])([2H])N(C([2H])([2H])[2H])C([2H])([2H])C([2H])([2H])c1c[nH]c2cccc(F)c12` [Compound I-43, 2-(4-fluoro-1H-indol-3-yl)-N,N-bis(methyl-d3)ethan-1-amine-1,1,2,2-d4] has an EC50 [2] of under 1000 nM and an IC50 [3] of under 500 nM.
